Assay results taken from US8796460B2, “Compounds for inhibiting KSP kinesin activity” (Mercky Sharp & Dohme Corp., priority 2007, dated 2014).

system: HCT116 colon cancer cells; test: KSP Cellular Assay (percent of cells staining positive for Phos-Histone H3 / Phos-MPM2); type: cell-based; conditions: Homo sapiens, HCT-116, 16 h, Table 101; HCT116 cells, 16 hours with drug; read-out: ED50 (nM) Range
How it was run: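 HCT116 cells treated with compound for 16 hours, fixed and stained with Hoechst plus Phos-Histone H3 (ser10) and Phos-MPM2 antibodies. Percent positive cells from immunofluorescence imaging; EC50 by sigmoidal nonlinear regression over 8-point dilutions in duplicate.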

Structure (SMILES) | EC50 [nM]
CC(=O)N1N=C(c2cc(F)ccc2F)S[C@]12CCc1ccccc12 [compound 119] | 500 to 1000
CC(=O)N1N=C(c2cc(F)ccc2F)SC12CCSc1ccccc12 (stereo not shown) [compound 104] | > 1000
CC(=O)N1N=C(c2cc(F)ccc2F)SC12CCCOc1ccccc12 (stereo not shown) [compound 121] | > 1000
CC(=O)N1N=C(c2cc(F)ccc2F)SC12CCN(C)c1ccccc12 (stereo not shown) [compound 111] | > 1000
CC(=O)N1N=C(c2cc(F)ccc2F)SC12CC[S+]([O-])c1ccccc12 (stereo not shown) [compound 108] | > 1000
CC(=O)N1N=C(C2=C(F)CCC(F)=C2)SC12Cc1ccccc12 (stereo not shown) [compound 120] | ≤ 500
CC(=O)N1N=C(c2cc(F)ccc2F)SC12CCOc1ccccc12 (stereo not shown) [compound 102] | ≤ 500
CC(=O)N1N=C(c2cc(F)ccc2F)SC12C(=O)Nc1ccccc12 (stereo not shown) [compound 127] | > 1000
CC(=O)N1C(=O)C2(SC(c3cc(F)ccc3F)=NN2C(C)=O)c2ccccc21 (stereo not shown) [compound 128] | > 1000
CC(=O)N1N=C(c2cc(F)ccc2F)SC12CC(C)Oc1ccc(F)cc12 (stereo not shown) [compound 115] | > 1000

same assay, conditions: Homo sapiens, HCT-116, 16 h, Table 401; HCT116 cells, 16 hours with drug; read-out: ED50 (nM) Range

Structure (SMILES) | EC50 [nM]
CC(C)[C@H](O)C(=O)N1N=C(c2cc(F)ccc2F)SC12CCCc1ccsc12 (stereo partly shown) [compound 424] | > 1000
N[C@H]1CC[C@@H](C(=O)N2N=C(c3cc(F)ccc3F)SC23CCOc2ccccc23)CC1 (stereo partly shown) [compound 481] | > 500
O=C(C1CCCNC1)N1N=C(c2cc(F)ccc2F)SC12CCSc1ccccc12 (stereo not shown) [compound 405] | > 1000
NCCCCC(=O)N1N=C(c2cc(F)ccc2F)SC12CCOc1ccccc12 (stereo not shown) [compound 487] | ≤ 500
O=C([C@@H]1CCCN1)N1N=C(c2cc(F)ccc2F)SC12CCCc1sccc12 (stereo partly shown) [compound 411] | > 1000
O=C1CCCN1CCCC(=O)N1N=C(c2cc(F)ccc2F)SC12CCc1ccccc12 (stereo not shown) [compound 455] | 500 to 1000
N[C@@H]1CC[C@@H](C(=O)N2N=C(c3cc(F)ccc3F)SC23CCOc2ccccc23)C1 (stereo partly shown) [compound 478] | > 500
NCCCC(=O)N1N=C(c2cc(F)ccc2F)SC12CCc1ccccc12 (stereo not shown) [compound 437] | ≤ 500
O=C(CC1CCCNC1)N1N=C(c2cc(F)ccc2F)SC12CCOc1ccccc12 (stereo not shown) [compound 483] | 500 to 1000
O=C(C1CCCNC1)N1N=C(c2cc(F)ccc2F)SC12CCCc1ccsc12 (stereo not shown) [compound 426] | > 1000
O=C(C1CCCNC1)N1N=C(c2cc(F)ccc2F)SC12CCOc1ccccc12 (stereo not shown) [compound 407] | > 1000
O=C1CCCN1CCCC(=O)N1N=C(c2cc(F)ccc2F)SC12CCOc1ccccc12 (stereo not shown) [compound 493] | > 500
CN(C)CCCC(=O)N1N=C(c2cc(F)ccc2F)SC12Cc1ccccc12 (stereo not shown) [compound 463] | ≤ 500
O=C(c1cccnc1)N1N=C(c2cc(F)ccc2F)SC12CCOc1ccccc12 (stereo not shown) [compound 431] | > 1000
O=C(C1CCNC1)N1N=C(c2cc(F)ccc2F)SC12CCCc1ccccc12 (stereo not shown) [compound 412] | > 1000
O=C(C1CCNCC1)N1N=C(c2cc(F)ccc2F)SC12CCCc1ccccc12 (stereo not shown) [compound 401] | > 1000
O=C(CCC1CCNCC1)N1N=C(c2cc(F)ccc2F)SC12CCOc1ccccc12 (stereo not shown) [compound 498] | ≤ 500

Structure (SMILES) | EC50 [nM]
NC1CCC(C(=O)N2N=C(c3cc(F)ccc3F)SC23CCc2ccccc23)C1 (stereo not shown) [compound 440] | ≤ 500
CC(C)(C)C(=O)N1N=C(c2cc(F)ccc2F)SC12CCOc1ccccc12 (stereo not shown) [compound 430] | > 1000
O=C(Cc1ccncc1)N1N=C(c2cc(F)ccc2F)SC12CCc1ccccc12 (stereo not shown) [compound 449] | ≤ 500
O=C(CCC1CCNCC1)N1N=C(c2cc(F)ccc2F)SC12CCc1ccccc12 (stereo not shown) [compound 462] | ≤ 500
CC(C)C(=O)N1N=C(c2cc(F)ccc2F)SC12CCOc1ccccc12 (stereo not shown) [compound 467] | > 1000
O=C(CC1CCCNC1)N1N=C(c2cc(F)ccc2F)SC12CCc1ccccc12 (stereo not shown) [compound 446] | 500 to 1000
NC(=O)CCC(=O)N1N=C(c2cc(F)ccc2F)SC12CCc1ccccc12 (stereo not shown) [compound 444] | ≤ 500
N[C@H]1C[C@@H](C(=O)N2N=C(c3cc(F)ccc3F)SC23CCOc2ccccc23)C1 (stereo partly shown) [compound 499] | 500 to 1000
O=C([C@@H]1CCCN1)N1N=C(c2cc(F)ccc2F)SC12CCc1ccccc12 (stereo partly shown) [compound 423] | > 1000
O=C(CO)N1N=C(c2cc(F)ccc2F)SC12CCOc1ccccc12 (stereo not shown) [compound 473] | 500 to 1000
NCCCCC(=O)N1N=C(c2cc(F)ccc2F)SC12CCc1ccccc12 (stereo not shown) [compound 443] | ≤ 500
O=C([C@@H]1CCCCN1)N1N=C(c2cc(F)ccc2F)SC12CCSc1ccccc12 (stereo partly shown) [compound 403] | > 1000
CC(C)[C@H](O)C(=O)N1N=C(c2cc(F)ccc2F)SC12CCCc1sccc12 (stereo partly shown) [compound 409] | > 1000
CC(N)CCC(=O)N1N=C(c2cc(F)ccc2F)SC12CCOc1ccccc12 (stereo not shown) [compound 490] | ≤ 500
NCCCC(=O)N1N=C(c2cc(F)ccc2F)S[C@]12CCOc1ccccc12 [compound 458] | ≤ 500
CN1CCC(C(=O)N2N=C(c3cc(F)ccc3F)SC23CCCc2ccsc23)CC1 (stereo not shown) [compound 429] | > 1000

same assay, conditions: Homo sapiens, HCT-116, 16 h, Table 701; HCT116 cells, 16 hours with drug; read-out: EC50 (nM) Range

Structure (SMILES) | EC50 [nM]
NCCN1N=C(c2cc(F)ccc2F)SC12CCOc1ccccc12 (stereo not shown) [compound 701] | > 1000

same assay, conditions: Homo sapiens, HCT-116, 16 h, Table 801; HCT116 cells, 16 hours with drug; read-out: EC50 (nM) Range

Structure (SMILES) | EC50 [nM]
CC(=O)N1N=C(c2cc(F)ccc2F)S[C@@]12c1cccc(F)c1OC[C@H]2CCN [compound 809] | ≤ 500
CC(=O)N1N=C(c2cc(F)ccc2F)S[C@@]12c1ccccc1OC[C@H]2CCN [compound 815] | ≤ 500
CC(=O)N1N=C(c2cc(F)ccc2F)S[C@@]12c1ccccc1OC[C@@H]2CCN [compound 814] | ≤ 500

same assay, conditions: Homo sapiens, HCT-116, 16 h, table of Example 901; HCT116 cells, 16 hours with drug; read-out: EC50 (nM) Range

Structure (SMILES) | EC50 [nM]
CC(=O)N1N=C(c2cc(F)ccc2F)S[C@]12c1ccccc1C[C@@H]2CC#N [compound 907] | ≤ 500

same assay, conditions: Homo sapiens, HCT-116, 16 h, table of Example 1001; HCT116 cells, 16 hours with drug; read-out: EC50 (nM) Range

Structure (SMILES) | EC50 [nM]
CC(=O)N1N=C(c2cc(F)ccc2F)S[C@]12c1ccccc1OC[C@@H]2CCCO (single isomer, unassigned) [compound 1003] | > 1000

same assay, conditions: Homo sapiens, HCT-116, 16 h, table of Example 1801 (headed Table 1201); HCT116 cells, 16 hours with drug; read-out: EC50 (nM) Range

Structure (SMILES) | EC50 [nM]
CC(=O)N1N=C(c2cc(F)cc(F)c2)S[C@]12c1cc(F)ccc1OC[C@@H]2CCN [compound 1824] | > 1000
CC(=O)N1N=C(c2cccc(Cl)c2)S[C@@]12c1ccccc1OC[C@H]2CCN [compound 1812] | ≤ 500
CC(=O)N1N=C(c2ccc(F)c(F)c2)S[C@]12c1cc(F)ccc1OC[C@@H]2CCN [compound 1823] | > 1000
CC(=O)N1N=C(c2ccccc2F)S[C@]12c1ccccc1OC[C@@H]2CCN [compound 1804] | > 1000
CC(=O)N1N=C(c2ccccc2)S[C@@]12c1ccccc1OC[C@H]2CCN [compound 1808] | ≤ 500
CC(=O)N1N=C(c2cccc(C(F)(F)F)c2)S[C@]12c1ccccc1OC[C@@H]2CCN [compound 1817] | > 1000
CC(=O)N1N=C(c2ccc(F)cc2F)S[C@@]12c1cc(F)ccc1OC[C@H]2CCN [compound 1819] | ≤ 500
CC(=O)N1N=C(c2ccc(F)cc2F)S[C@]12c1cc(F)ccc1OC[C@@H]2CCN [compound 1822] | > 1000

same assay, conditions: Homo sapiens, HCT-116, 16 h, table of Example 1901; HCT116 cells, 16 hours with drug; read-out: EC50 (nM) Range

Structure (SMILES) | EC50 [nM]
CO[C@@H](C)C(=O)N1N=C(c2cc(F)ccc2F)S[C@]12c1cc(F)cc(F)c1OC[C@@H]2CCN [compound 1908] | > 1000
CO[C@H](C)C(=O)N1N=C(c2cc(F)ccc2F)S[C@]12c1cc(F)ccc1OC[C@@H]2CCN [compound 1903] | > 1000
COCCOCC(=O)N1N=C(c2cc(F)ccc2F)S[C@@]12c1cc(F)ccc1OC[C@H]2CCN [compound 1906] | ≤ 500

same assay, conditions: Homo sapiens, HCT-116, 16 h, table of Example 2001; HCT116 cells, 16 hours with drug; read-out: EC50 (nM) Range

Structure (SMILES) | EC50 [nM]
COCC(=O)N1N=C(c2cc(F)ccc2F)S[C@]12c1ccccc1OC[C@@H]2CCN [compound 2003] | ≤ 500

same assay, conditions: Homo sapiens, HCT-116, 16 h, table of Example 2101; HCT116 cells, 16 hours with drug; read-out: EC50 (nM) Range

Structure (SMILES) | EC50 [nM]
CCOC(=O)N1N=C(c2cc(F)ccc2F)S[C@]12c1ccccc1OC[C@@H]2CCN [compound 2104] | ≤ 500
CCOC(=O)N1N=C(c2cc(F)ccc2F)S[C@@]12c1ccccc1OC[C@H]2CCN [compound 2103] | > 1000

same assay, conditions: Homo sapiens, HCT-116, 16 h, table of Example 2201; HCT116 cells, 16 hours with drug; read-out: EC50 (nM) Range

Structure (SMILES) | EC50 [nM]
CN(C)C(=O)N1N=C(c2cc(F)ccc2F)S[C@@]12c1cc(F)ccc1OC[C@H]2CCN (single isomer, unassigned) [compound 2201] | > 1000
CN(C)C(=O)N1N=C(c2cc(F)ccc2F)S[C@]12c1ccccc1OC[C@@H]2CCN [compound 2204] | ≤ 500

same assay, conditions: Homo sapiens, HCT-116, 16 h, table of Example 2301; HCT116 cells, 16 hours with drug; read-out: EC50 (nM) Range

Structure (SMILES) | EC50 [nM]
Fc1ccc(F)c(C2=NN3CCC4COc5ccccc5C43S2)c1 (stereo not shown) [compound 2302] | > 1000

same assay, conditions: Homo sapiens, HCT-116, 16 h, table of Example 2901; HCT116 cells, 16 hours with drug; read-out: EC50 (nM) Range

Structure (SMILES) | EC50 [nM]
CC(=O)N1N=C(c2cc(F)ccc2F)S[C@]12c1cc(F)ccc1NC[C@@H]2CCN [compound 2904] | > 1000
CC(=O)N1N=C(c2cc(F)ccc2F)S[C@]12c1cc(F)ccc1NC[C@H]2CCN [compound 2903] | ≤ 500

same assay, conditions: Homo sapiens, HCT-116; read-out: EC50 (nM) Range

Structure (SMILES) | EC50 [nM]
Fc1ccc(F)c(C2=NN3CCC4CNc5ccccc5C43S2)c1 (stereo not shown) [compound 3101] | > 1000

same assay, conditions: Homo sapiens, HCT-116; table of Example 2001; HCT116 cells, 16 hours with drug; read-out: EC50 (nM) Range

Structure (SMILES) | EC50 [nM]
NCC[C@@H]1COc2ccccc2[C@@]12SC(c1cc(F)ccc1F)=NN2C(=O)CF [compound 2002] | ≤ 500
